Results published in PubChem BioAssay (NCI).
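All cell lines were grown in 96-well plates and treated with compound for 48 hours. At the GI50, growth is halved. Definition used: TGI = concentration required for complete inhibition of growth.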

Columns and labels:
Experiment in all cases: inhibition of tumour cell growth, NCI panel, 48 h
[1] = system: HS 578T breast
[2] = system: TK-10 renal
[3] = system: NCI-H23 lung
[4] = system: SK-OV-3 ovarian
[5] = system: MDA-MB-435
[6] = system: LOX IMVI melanoma
[7] = system: PC-3 prostate
[8] = system: CAKI-1 renal
[9] = system: MOLT-4 leukemia
[10] = system: HL-60(TB) leukemia
[11] = system: MCF7 breast
[12] = system: T-47D breast
[13] = system: SR leukemia
[14] = system: HOP-92 NSCLC
[15] = system: A498 renal
[16] = system: UACC-257 melanoma
[17] = system: NCI/ADR-RES ovarian
[18] = system: BT-549 breast
[19] = system: MDA-MB-231 breast
[20] = system: U251 CNS
[21] = system: NCI-H460 lung
[22] = system: SW-620 colon
[23] = system: OVCAR-4 ovarian
[24] = system: HCT-116 colon
[25] = system: NCI-H226 lung
[26] = system: RXF 393 renal
[27] = system: HCC-2998 colon
[28] = system: SNB-75 CNS
[29] = system: DU-145 prostate
[30] = system: SF-539 CNS
[31] = system: SNB-19 CNS
[32] = system: UACC-62 melanoma
[33] = system: SK-MEL-28 melanoma
[34] = system: IGROV1 ovarian
[35] = system: ACHN renal
[36] = system: CCRF-CEM leukemia
[37] = system: RPMI-8226 leukemia
[38] = system: OVCAR-8 ovarian
[39] = system: KM12 colon
[40] = system: SF-295 CNS
[41] = system: UO-31 renal
[42] = system: SF-268 CNS
[43] = system: HCT-15 colon
[44] = system: 786-0 renal
[45] = system: HOP-62 NSCLC
[46] = system: K-562 leukemia
[47] = system: SK-MEL-5 melanoma
[48] = system: SK-MEL-2 melanoma
[49] = system: HT29 colon
[50] = system: EKVX NSCLC
[51] = system: COLO 205 colon
[52] = system: M14 melanoma
[53] = system: SN12C renal
[54] = system: OVCAR-5 ovarian
[55] = system: OVCAR-3 ovarian
[56] = system: A549 NSCLC

Cc1cccc(NC(=S)Nc2ccc(Cl)cc2)n1
TGI [1]: > 100 µM | TGI [2]: > 100 µM | TGI [3]: > 100 µM | TGI [4]: > 100 µM | TGI [5]: > 100 µM | TGI [6]: > 100 µM | TGI [7]: > 100 µM | TGI [8]: > 100 µM | TGI [9]: > 100 µM | TGI [10]: > 100 µM | TGI [11]: > 100 µM | TGI [12]: > 100 µM | TGI [13]: > 100 µM | TGI [14]: > 100 µM | TGI [15]: > 100 µM | TGI [16]: > 100 µM | TGI [17]: > 100 µM | TGI [18]: > 100 µM | TGI [19]: > 100 µM | TGI [20]: > 100 µM | TGI [21]: > 100 µM | TGI [22]: > 100 µM | TGI [23]: > 100 µM | TGI [24]: > 100 µM | TGI [25]: > 100 µM | TGI [26]: > 100 µM | TGI [27]: > 100 µM | TGI [28]: > 100 µM | TGI [29]: > 100 µM | TGI [30]: > 100 µM | TGI [31]: > 100 µM | TGI [32]: > 100 µM | TGI [33]: > 100 µM | TGI [34]: > 100 µM | TGI [35]: > 100 µM | TGI [36]: > 100 µM | TGI [37]: > 100 µM | TGI [38]: > 100 µM | TGI [39]: > 100 µM | TGI [40]: > 100 µM | TGI [41]: > 100 µM | TGI [42]: > 100 µM | TGI [43]: > 100 µM | TGI [44]: > 100 µM | TGI [45]: > 100 µM | TGI [46]: > 100 µM | TGI [47]: > 100 µM | TGI [48]: > 100 µM | TGI [49]: > 100 µM | TGI [50]: > 100 µM | TGI [51]: > 100 µM | TGI [52]: > 100 µM

CC(=O)OCC1OC(OC2CCCC[Si](c3ccccc3)(c3ccccc3)O2)C(OC(C)=O)C(OC(C)=O)C1OC(C)=O (configuration not stated)
GI50 [1]: > 100 µM | TGI [1]: > 100 µM | GI50 [2]: > 100 µM | TGI [2]: > 100 µM | GI50 [3]: > 100 µM | TGI [3]: > 100 µM | GI50 [4]: > 100 µM | TGI [4]: > 100 µM | GI50 [5]: 51 µM | TGI [5]: > 100 µM | GI50 [6]: 53.6 µM | TGI [6]: > 100 µM | GI50 [7]: > 100 µM | TGI [7]: > 100 µM | GI50 [8]: 38.9 µM | TGI [8]: > 100 µM | GI50 [9]: 10.3 µM | TGI [9]: > 100 µM | GI50 [53]: > 100 µM | TGI [53]: > 100 µM | GI50 [11]: 69.2 µM | TGI [11]: > 100 µM | GI50 [12]: > 100 µM | TGI [12]: > 100 µM | GI50 [13]: 73.6 µM | TGI [13]: > 100 µM | GI50 [14]: > 100 µM | TGI [14]: > 100 µM | GI50 [54]: > 100 µM | TGI [54]: > 100 µM | GI50 [55]: 13.3 µM | TGI [55]: 69.5 µM | GI50 [15]: > 100 µM | TGI [15]: > 100 µM | GI50 [16]: > 100 µM | TGI [16]: > 100 µM | GI50 [17]: > 100 µM | TGI [17]: > 100 µM | GI50 [18]: > 100 µM | TGI [18]: > 100 µM | GI50 [19]: > 100 µM | TGI [19]: > 100 µM | GI50 [20]: > 100 µM | TGI [20]: > 100 µM | GI50 [21]: > 100 µM | TGI [21]: > 100 µM | GI50 [22]: 53 µM | TGI [22]: > 100 µM | GI50 [23]: > 100 µM | TGI [23]: > 100 µM | GI50 [24]: 24.5 µM | TGI [24]: 59.2 µM | GI50 [26]: > 100 µM | TGI [26]: > 100 µM | GI50 [27]: > 100 µM | TGI [27]: > 100 µM | GI50 [29]: > 100 µM | TGI [29]: > 100 µM | GI50 [56]: > 100 µM | TGI [56]: > 100 µM | GI50 [30]: 29.2 µM | TGI [30]: 79.1 µM | GI50 [31]: > 100 µM | TGI [31]: > 100 µM | GI50 [32]: > 100 µM | TGI [32]: > 100 µM | GI50 [33]: > 100 µM | TGI [33]: > 100 µM | GI50 [35]: > 100 µM | TGI [35]: > 100 µM | GI50 [36]: 35.5 µM | TGI [36]: > 100 µM | GI50 [37]: 32.6 µM | TGI [37]: > 100 µM | GI50 [38]: > 100 µM | TGI [38]: > 100 µM | GI50 [39]: > 100 µM | TGI [39]: > 100 µM | GI50 [40]: > 100 µM | TGI [40]: > 100 µM | GI50 [42]: > 100 µM | TGI [42]: > 100 µM | GI50 [43]: > 100 µM | TGI [43]: > 100 µM | GI50 [44]: > 100 µM | TGI [44]: > 100 µM | GI50 [45]: > 100 µM | TGI [45]: > 100 µM | GI50 [46]: 56.1 µM | TGI [46]: > 100 µM | GI50 [47]: > 100 µM | TGI [47]: > 100 µM | GI50 [49]: > 100 µM | TGI [49]: > 100 µM | GI50 [50]: > 100 µM | TGI [50]: > 100 µM | GI50 [51]: > 100 µM | TGI [51]: > 100 µM | GI50 [52]: > 100 µM | TGI [52]: > 100 µM
